The results in this text go back to ChEMBL document CHEMBL1130894, “Discovery of a novel benzyloxyisoquinoline derivative with potent anti-Helicobacter pylori activity” (1998).

One may read the MIC as the smallest concentration in the dilution series that meets the test's criterion for growth inhibition. Low values mean inhibition by little substance, high ones a need for much substance.

Format in all cases: functional
The test system of experiment [1] is Helicobacter pylori. The experiment is described as follows: Antibacterial activity was evaluated against Helicobacter pylori (FP1757).
The test system of experiment [2] is Helicobacter pylori. The experiment is described as follows: Antibacterial activity was evaluated against Helicobacter pylori (9005).
Experiment [3] concerns Helicobacter pylori. As to the kind of experiment: Antibacterial activity was evaluated against Helicobacter pylori (13001).
The test system of experiment [4] is Helicobacter pylori. As to the kind of experiment: Antibacterial activity was evaluated against Helicobacter pylori (8007).
For experiment [5], the system named is Enterococcus faecalis. As to the kind of experiment: Antibacterial activity was evaluated against Enterococcus faecalis (0115).
Experiment [6] relates to Escherichia coli. As to the kind of experiment: Antibacterial activity was evaluated against Escherichia coli (NIHJ JC-2).
For experiment [7], the system named is Serratia marcescens. The experiment is described as follows: Antibacterial activity was evaluated against Serratia marcescens (3013).
In experiment [8] the test system is Moraxella catarrhalis. As to the kind of experiment: Antibacterial activity was evaluated against M.(B).catarrhalis (6014).
Experiment [9] has as its system Staphylococcus aureus. The experiment is described as follows: Antibacterial activity was evaluated against Staphylococcus aureus (209P JC-1).

Converted amounts (≈) assume the structure as drawn.

`Nc1ccc(Cl)c(COc2cccc3cnccc23)c1Cl`: the MIC in [1], in [2], in experiment [3] and in experiment [4] was 0.78 µg/mL (≈ 2.44 µM) each time.

As to `CC(=O)Nc1ccc(Cl)c(COc2cccc3cnccc23)c1Cl`, the minimum inhibitory concentration (MIC) in experiment [1] was 0.0125 µg/mL (≈ 0.0346 µM); in experiment [5], greater than 100 µg/mL; in [2] it was 0.05 µg/mL (≈ 0.138 µM); in experiment [6] it was greater than 100 µg/mL; in [7] it was greater than 100 µg/mL; in experiment [3] it was 0.025 µg/mL (≈ 0.0692 µM). Besides, the minimum inhibitory concentration (MIC) was 0.025 µg/mL (≈ 0.0692 µM) in [4], greater than 100 µg/mL in experiment [8] and greater than 100 µg/mL in experiment [9].

As for `CC(=O)Nc1cc(Cl)cc(COc2cccc3cnccc23)c1Cl`, the MIC was 0.39 µg/mL (≈ 1.08 µM) in [1], 0.39 µg/mL (≈ 1.08 µM) in experiment [2], 0.2 µg/mL (≈ 0.554 µM) in [3] and 0.39 µg/mL (≈ 1.08 µM) in experiment [4].

`CC(=O)Nc1c(Cl)ccc(Cl)c1COc1cccc2cnccc12`: the MIC in experiment [1], in experiment [2], in experiment [3] and in experiment [4] was no less than 12.5 µg/mL throughout.

With `c1cc(OCc2cccc3nonc23)c2ccncc2c1`, the MIC came out at 0.78 µg/mL (≈ 2.81 µM) in [1], 0.78 µg/mL (≈ 2.81 µM) in [2], 0.2 µg/mL (≈ 0.721 µM) in [3] and 0.39 µg/mL (≈ 1.41 µM) in experiment [4].

In the case of `Clc1cccc(Cl)c1COc1cccc2cnccc12`, the minimal inhibitory concentration (MIC) was found to be 0.78 µg/mL (≈ 2.56 µM) in [1], 1.56 µg/mL (≈ 5.13 µM) in [2], 0.78 µg/mL (≈ 2.56 µM) in [3] and 0.78 µg/mL (≈ 2.56 µM) in experiment [4].

As to `Nc1ccc(Cl)c(COc2cccc3cnccc23)c1`, the MIC in experiment [1], in experiment [2], in [3] and in [4] was 0.39 µg/mL (≈ 1.37 µM) each time.

Take `CC(=O)Nc1ccc(Cl)c(COc2cccc3cnccc23)c1`: the MIC in experiment [1] is 1.56 µg/mL (≈ 4.77 µM); in experiment [2] it was 0.78 µg/mL (≈ 2.39 µM); in experiment [3], 0.78 µg/mL (≈ 2.39 µM); in [4] it was 0.78 µg/mL (≈ 2.39 µM).

Take `c1ccc(COc2cccc3cnccc23)cc1`: the minimal inhibitory concentration (MIC) amounted to 1.56 µg/mL (≈ 6.63 µM) in experiment [1], 1.56 µg/mL (≈ 6.63 µM) in [2], 0.78 µg/mL (≈ 3.32 µM) in experiment [3] and 1.56 µg/mL (≈ 6.63 µM) in experiment [4].

Take `O=[N+]([O-])c1ccc(Cl)c(COc2cccc3cnccc23)c1Cl`: the minimum inhibitory concentration (MIC) in experiment [1], in experiment [2], in experiment [3] and in experiment [4] was 1.56 µg/mL (≈ 4.47 µM) throughout.

Turning to `Nc1cccc(COc2cccc3cnccc23)c1`, the MIC in [1] worked out at 1.56 µg/mL (≈ 6.23 µM); in experiment [2] it was 1.56 µg/mL (≈ 6.23 µM); in experiment [3] it was 0.78 µg/mL (≈ 3.12 µM); in [4], 1.56 µg/mL (≈ 6.23 µM).

With `Oc1cccc2cnccc12`, the minimal inhibitory concentration (MIC) in experiment [1] was 50 µg/mL (≈ 344 µM); in [2] it was 50 µg/mL (≈ 344 µM); in [3], 25 µg/mL (≈ 172 µM); in experiment [4], 25 µg/mL (≈ 172 µM).

For the compound `Nc1cccc(COc2cccc3cnccc23)c1Cl`, the minimum inhibitory concentration (MIC) in experiment [1] came out at 0.78 µg/mL (≈ 2.74 µM); in experiment [2], 0.39 µg/mL (≈ 1.37 µM); in experiment [3] it was 0.2 µg/mL (≈ 0.702 µM); in experiment [4], 0.39 µg/mL (≈ 1.37 µM).

For the compound `CC(=O)Nc1cccc(COc2cccc3cnccc23)c1Cl`, the MIC in experiment [1], in experiment [2], in experiment [3] and in experiment [4] was 0.39 µg/mL (≈ 1.19 µM) in each case.

On to `CC(=O)Nc1cccc(COc2cccc3cnccc23)c1`, for which the MIC in [1] is 1.56 µg/mL (≈ 5.34 µM); in [2], 0.78 µg/mL (≈ 2.67 µM); in [3], 0.78 µg/mL (≈ 2.67 µM); in experiment [4] it was 0.78 µg/mL (≈ 2.67 µM).

On to `CC1(C)S[C@@H]2[C@H](NC(=O)[C@H](N)c3ccc(O)cc3)C(=O)N2[C@H]1C(=O)O` [AMOXICILLIN], for which the minimal inhibitory concentration (MIC) was 0.025 µg/mL (≈ 0.0684 µM) in [1]; 0.39 µg/mL (≈ 1.07 µM) in [5]; 0.1 µg/mL (≈ 0.274 µM) in experiment [2]; 3.13 µg/mL (≈ 8.57 µM) in experiment [6]; greater than 100 µg/mL in experiment [7]; 0.025 µg/mL (≈ 0.0684 µM) in [3]. For the same compound, the MIC in experiment [4] was 0.1 µg/mL (≈ 0.274 µM); in [8] it was 0.39 µg/mL (≈ 1.07 µM); in experiment [9], 0.05 µg/mL (≈ 0.137 µM).

For `CC[C@H]1OC(=O)[C@H](C)[C@@H](O[C@H]2C[C@@](C)(OC)[C@@H](O)[C@H](C)O2)[C@H](C)[C@@H](O[C@@H]2O[C@H](C)C[C@H](N(C)C)[C@H]2O)[C@](C)(OC)C[C@@H](C)C(=O)[C@H](C)[C@@H](O)[C@]1(C)O` [CLARITHROMYCIN], the MIC in experiment [1] was found to be 0.05 µg/mL (≈ 0.0668 µM); in [5] it was 0.2 µg/mL (≈ 0.267 µM); in experiment [2], 0.1 µg/mL (≈ 0.134 µM); in experiment [6], 100 µg/mL (≈ 134 µM); in experiment [7] it was 100 µg/mL (≈ 134 µM); in [3] it was 0.05 µg/mL (≈ 0.0668 µM). Also, the results for the MIC in experiment [4], in experiment [8] and in experiment [9] were 0.05 µg/mL (≈ 0.0668 µM), less than 0.025 µg/mL and 0.1 µg/mL (≈ 0.134 µM), respectively.
